Source: patent publication US9707239B2, “Compounds that modulate oxidative stress” (vTv Therapeutics LLC, priority 2011, dated 2017)
“Also recorded” adds a separate entry of the source.

How the values were obtained:
NHLF cells [1] = test: ROS measurements (H2DCF-DA imaging); assay type: cell-based, human; details: 1 hr; for elevation of ROS production: relative to untreated controls, FIG. 3A; for ROS production (in words): cell-by-cell imaging, FIG. 3A/3B
Protocol: Secondary growth of NHLF cells were used for all assays. Cells were cultured as above. Cells were plated into 384-well BD-Optilux Plates at 2,000 cells/well and cultured overnight at 37° C. and 5% CO2. The following day, cell were washed and 2,7-dihydrodichlorofluorescin diacetate (H2DCF-DA), 10 μM ferric ammonium citrate (FAC), and Hoechst stain were added to cells for 30 min. The cells were washed once with PBS to remove any H2DCF-DA not taken up by cells. Test compounds were prepared in FBM-2 media at the desired concentrations. The plates and stain-treated cells were incubated with test compounds for 1 hr at 37° C. and 5% CO2. Following the incubation period, ROS generation was determined by imaging the cells on a GE INcell 1000 imager (Hoechst Ex. 360 Em. 535; H2DCF-DA 488 Ex. 480 Em. 535). ROS levels were determined and quantified using GE IN Cell Analyzer Software.
In addition to gene profiling, the requirement for ROS generation or chemical reactivity was tested. ROS generation was measured using an automated imaging technique. Compound 13 as well as two other compounds that were found in the screening set were tested in this experiment. Untreated NHLF cells, NHLF cells treated with the HMOX1 inducer CoPP (a negative control), and NHLF cells treated with curcumin or celestrol (positive controls) were included as controls. […] Further experiments were also conducted on chemical derivatives of Compound 13. In those experiments, all compounds tested were found not to induce an elevation of ROS levels in the cell (FIG. 3B). Thus, Compound 13 and related compounds represent a class of agents that elevate HMOX1 production without elevating ROS production.

HMOX1 [2] = test: Effect of NAC on compound induction of HMOX gene expression; assay type: cell-based, human; details: NHLF cells pretreated with 5 mM NAC 1 hr, compound 6 h, FIG. 4
Protocol: NHLF cells were grown to 80% confluency and harvested by washing once with HEPES and then trypsinizing. Equal numbers (7×10^4 cells per well) of NHLF cells were plated in 96 well tissue culture (Corning) plates. Cells were incubated overnight in FGM-2 medium prior to exposure to compound. Cells were pretreated with 5 mM N-acetyl cysteine for 1 hr. Cells were treated with either DMSO or compound for 6 h. Preparation of cell lysates was carried out according to Quantigene Reagent system 2.0 protocol (Panomics). Heme oxygenase mRNA induction was detected from cell lysate using the Quantigene Plex 2.0 Assay Kit (Panomics) on the Luminex platform (BIO-RAD). Expression of GAPDH mRNA was used as the internal control for the Quantigen Plex 2.0 Assay. Heme oxygenase data represents the fold change, normalized to control values, above DMSO treated cells.
A further test of the hypothesis that Compound 13 induces HMOX1 with minimal alteration of cellular redox levels or chemical reactivity was carried out by treating cells with N-acetyl cysteine (NAC). This compound acts to restore cellular glutathione levels and thus prevent oxidative stress. The degree to which NAC can suppress HMOX1 induction is an indicator of the amount of chemical reactivity or ROS stress that a compound is imposing on the cell and thus activating phase II gene transcription. […] Coupled with the data shown in FIG. 3, it is concluded that Compound 13 induces HMOX1 with minimal elevation of ROS or NAC-sensitive chemical reactivity.

Keap1 = test: HMOX1 induction after Keap1 silencing (shRNA); assay type: cell-based, human; details: NHLF cells, FIG. 6
Protocol: Normal human lung fibroblasts were plated in a 12-well tissue culture dish at 16,000 cells/well and allowed to attach overnight. Regular medium was then replaced with 200 μl of fresh growth medium containing 8 μg/ml hexadimethrine bromide (polybrene). Lentiviral transduction particles were then added in the following amounts: Control shRNA (1.1×10^7 TU/ml, Sigma, cat# SHC002V), 15 μl for an MOI of 10; KEAP-1 shRNA (6.3×10^6 TU/ml, Sigma, cat# SHCLNV-TRCN0000046092), 63 μl for an MOI of 20. After 4 hours in the cell culture incubator, another 200 μl of growth medium was added on top of the original volume. Cells were replenished the next day with fresh complete growth medium and were allowed to recover for 24 hours, after which selection medium was applied (complete medium with 1 μg/ml puromycin).
Another method of testing the role of the Nrf2 regulatory pathway on compound activity is to determine the effect of silencing Keap1 on HMOX1 gene expression. It is known that deleting Keap1 will result in the induction of Nrf2 dependent genes but not, to any significant degree, HMOX1. The proposed explanation for this observation is that HMOX1 requires the concomitant derepression of Bach1 activity and that this event is more dependent on active processes (e.g., heme binding, changes in redox potential of the cell, phosphorylation of Bach1, etc.). We therefore tested the ability of Compound 13 and tool compounds to induce HMOX1 in the presence of silencing of Keap1 in normal human lung fibroblasts.
Normal human lung fibroblasts were tested with DMSO, CoPP, Compound 13, and two derivatives including Compound 4 and Compound 8. An electrophile, Compound 1, was also included in the test set. […] On the other hand, induction of HMOX1 by the electrophile Compound 1 was inhibited.

TXNRD1 = test: mRNA expression (Quantigene Plex) in NHLF cells: TXNRD1; assay type: cell-based, human; details: Table 6, 6 h, mRNA normalized to GAPDH, above DMSO treated cells
Protocol: (§1) Secondary growth of NHLF cells were used for all assays. Cell were thawed and then placed into culture in T225 flasks. The cells were grown to 80% confluency and harvested by washing once with HEPES buffered saline solution and then trypsinizing. Equal numbers (7×10^3 cells per well) of NHLF cells were plated in 96 well tissue culture plates (Corning). Cells were incubated overnight in FGM-2 medium prior to exposure to compound. Cells were treated with either DMSO or a compound as described below for 6 h. Preparation of cell lysates was carried out according to instructions using the Quantigene Reagent system 2.0 protocol (Panomics). mRNA induction was detected from cell lysate using the Quantigene Plex 2.0 Assay Kit (Panomics) on the Luminex platform (BIO-RAD). Expression of GAPDH mRNA was used as the internal control for the Quantigen Plex 2.0 Assay. The data in Tables 5 and 6 represents the fold change of target mRNA expression, normalized to control values, above DMSO treated cells.

ICAM = test: mRNA expression (Quantigene Plex) in NHLF cells: ICAM; assay type: cell-based, human; details: Table 6, 6 h, mRNA normalized to GAPDH, above DMSO treated cells
Protocol: as §1

HSPA6 = test: mRNA expression (Quantigene Plex) in NHLF cells: HSPA6; assay type: cell-based, human; details: Table 6, 6 h, mRNA normalized to GAPDH, above DMSO treated cells
Protocol: as §1

HMOX1 [3] = test: mRNA expression (Quantigene Plex) in NHLF cells: HMOX1; assay type: cell-based, human; details: Table 6, 6 h, mRNA normalized to GAPDH, above DMSO treated cells
Protocol: as §1

GADD45A = test: mRNA expression (Quantigene Plex) in NHLF cells: GADD45A; assay type: cell-based, human; details: Table 6, 6 h, mRNA normalized to GAPDH, above DMSO treated cells
Protocol: as §1

NQO1 = test: mRNA expression (Quantigene Plex) in NHLF cells: NQO1; assay type: cell-based, human; details: Table 6, 6 h, mRNA normalized to GAPDH, above DMSO treated cells
Protocol: as §1

NHLF cells [4] = test: Cytoprotection of cisplatin (CDDP)-treated NHLF cells (propidium iodide staining); assay type: cell-based
Protocol: (§2) A key outcome of Bach1 derepression and Nrf2 activation are the induction of cytoprotective genes. A method to test such cytoprotection is to assess the ability of a compound to protect normal human cells such as lung fibroblasts from toxicity due to cisplatin exposure. A model of cellular cytoprotection was established whereby normal human lung fibroblasts were treated with Bach1 modulators and then subsequently exposed to cisplatin. NHLF cells are very sensitive to cisplatin exposure; following a dose of 200 uM cisplatin, >90% of NHLF cells are propidium iodide positive, a measure of cell death.

HMOX1 [5] = test: HMOX1 induction in NHLF cells in the cisplatin cytoprotection model; assay type: cell-based, human; details: compound 24 hours prior to cisplatin, FIG. 8
Protocol: as §2

TXNRD1 (fold induction) (TXNRD1)	ICAM1 (fold induction) (ICAM)	HSPA6 (fold induction) (HSPA6)	HMOX1 (fold induction) (HMOX1 [3])	GADD45A (fold induction) (GADD45A)	NQO1 (fold induction) (NQO1)	Structure (SMILES)	ROS production (in words) (NHLF cells [1])	other results
						COc1cc(/C=C/C(=O)CC(=O)/C=C/c2ccc(O)c(OC)c2)ccc1O [curcumin, reference compound]		elevation of ROS production (NHLF cells [1]): approximately 3 fold; effect of N-acetyl cysteine (NAC) on HMOX1 induction (HMOX1 [2]): inhibited nearly fully by NAC; also recorded: fully suppressed in the presence of NAC
1.74 fold induction	0.77 fold induction	1.08 fold induction	56.15 fold induction	2.00 fold induction	1.85 fold induction	COC(=O)c1ccc2[nH]c(Nc3nc4ccccc4s3)nc2c1 [Compound 4, 2-(Benzothiazol-2-ylamino)-1H-benzoimidazole-5-carboxylic acid methyl ester]	no demonstrable increase in ROS production	HMOX1 induction in the presence of Keap1 silencing (Keap1): unaffected in their ability to induce HMOX1 in the presence of Keap1 silencing; also recorded: behaves similarly to CoPP induction
						CCOC(=O)/C=C/c1cnc2ccccc2c1S(=O)(=O)C1CCOC1C (stereo not drawn) [Compound 1, (E)-3-[4-(2-Methyl-tetrahydro-furan-3-sulfonyl)-quinolin-3-yl]-acrylic acid ethyl ester]		HMOX1 induction in the presence of Keap1 silencing (Keap1): inhibited
						N.N.[Cl][Pt][Cl] [cisplatin, reference compound]		NHLF cells propidium iodide positive (cell death) (NHLF cells [4]; 200 uM cisplatin): > 90%
1.83 fold induction	1.16 fold induction	1.60 fold induction	23.97 fold induction	0.89 fold induction	2.01 fold induction	COC(=O)[C@]12CCC(C)(C)CC1C1C(=O)C=C3[C@@]4(C)CC(C#N)C(=O)C(C)(C)[C@@H]4CC[C@@]3(C)[C@]1(C)CC2 (stereo partly drawn) [Compound 5, (4aS,6aR,6bS,8aR,12aS)-11-Cyano-2,2,6a,6b,9,9,12a-heptamethyl-10,14-dioxo-1,3,4,5,6,6a,6b,7,8,8a,9,10,11,12,12a,14, 14a,14b-octadecahydro-2H-picene-4a-carboxylic acid methyl ester, reference compound]	no demonstrable increase in ROS production	
						CC1=C(O)C(=O)C=C2C1=CC=C1[C@@]2(C)CC[C@@]2(C)[C@@H]3C[C@](C)(C(=O)O)CC[C@]3(C)CC[C@]12C [celestrol, reference compound]		elevation of ROS production (NHLF cells [1]): ~2 fold; effect of N-acetyl cysteine (NAC) on HMOX1 induction (HMOX1 [2]): inhibited nearly fully by NAC; also recorded: fully suppressed in the presence of NAC
						Cc1nc(Nc2nc3cc(C(=O)NCCOCCN)ccc3[nH]2)sc1C [Compound 11, 2-(4,5-Dimethyl-thiazol-2-ylamino)-1H-benzoimidazole-5-carboxylic acid [2-(2-amino-ethoxy)-ethyl]-amide]		HMOX1 induction (HMOX1 [5]): inactive HMOX1 inducers; also recorded: did not induce HMOX1; protection against cisplatin toxicity (NHLF cells [4]; NHLF cells, compound 24 hours prior to cisplatin exposure, FIG. 8): failed to protect NHLF cells against cisplatin toxicity; also recorded: failed to protect cells from CDDP-mediated cytotoxicity

Structure (SMILES)	TXNRD1 (fold induction) (TXNRD1)	ICAM1 (fold induction) (ICAM)	HSPA6 (fold induction) (HSPA6)	HMOX1 (fold induction) (HMOX1 [3])	GADD45A (fold induction) (GADD45A)	NQO1 (fold induction) (NQO1)	ROS production (in words) (NHLF cells [1])	other results
CC1OCCC1S(=O)(=O)c1c(-c2ccc(C(F)(F)F)cc2)cnc2ccccc12 (stereo not drawn) [Compound 3, 4-(2-Methyl-tetrahydro-furan-3-sulfonyl)-3-(4-trifluoromethyl-phenyl)-quinoline]	1.47 fold induction	1.47 fold induction	2.71 fold induction	45.17 fold induction	1.37 fold induction	1.69 fold induction	no demonstrable increase in ROS production	
